Reference: patent publication US20060004037A1, “Novel tricyclic compounds and related methods of treatment” (TransForm Pharmaceuticals, Inc., priority 2004, published 2006)
Converted amounts (≈) assume the structure as drawn. Structures can show the parent of a compound that is named as a salt. One block for each molecule: values may come before it.

How the values were obtained:
Caco-2 permeability = type: in vitro ADME; settings: human, Caco-2, free base form; for efflux ratio: read-out: B-A/A-B ratio
Caco-2 = Caco-2 permeability; type: in vitro ADME; settings: free base form
Hygroscopicity (VTI) = type: physicochemical; settings: free base form
pKa = type: physicochemical; settings: free base form
[1] = Solubility in various solvents/solubilizing mixtures; type: physicochemical
Description: The solubility of LSN 487355 in a variety of vehicles is illustrated in Table III.

[2] = Single excipient solubility screen; type: physicochemical
Description: A single excipient screen was completed in an attempt to find an appropriate excipient for a liquid formulation of LSN 487355. […]

Dynamic vapor sorption = type: physicochemical

Papp (Caco-2 permeability): 7.4 ×10⁻⁶ cm/s
efflux ratio (Caco-2 permeability): 2.7
Permeability class (Caco-2): Borderline high
Hygroscopicity (VTI) (Hygroscopicity (VTI)): Non-hygroscopic
SMILES: Cc1onc2c1c(=O)n([C@H]1CCC[C@@H](NC(=O)[C@@H](O)c3ccc(F)nc3)C1)c1cccc(Cl)c21 [LSN 509207]

pKa (pKa): 3.77
Papp (Caco-2 permeability): 7.9 ×10⁻⁶ cm/s
efflux ratio (Caco-2 permeability): 2.3
Permeability class (Caco-2): Borderline high
Hygroscopicity (VTI) (Hygroscopicity (VTI)): Non-hygroscopic
solubility ([1]; 4% DMSO in deionized water, kinetic from dmso stock, 4% DMSO, compound dissolved in solvent first, then deionized water added): 2 µg/mL (≈ 0.00427 mM)
solubility ([1]; 5% N-methyl-2-pyrrolidone in deionized water, aqueous with cosolvent or surfactant or cyclodextrin, kinetic from dmso stock, 5% N-methyl-2-pyrrolidone, compound dissolved in solvent first, then deionized water added): 4 µg/mL (≈ 0.00853 mM)
solubility ([1]; 10% DMSO in deionized water, aqueous with cosolvent or surfactant or cyclodextrin, kinetic from dmso stock, 10% DMSO, compound dissolved in solvent first, then deionized water added): 4 µg/mL (≈ 0.00853 mM)
solubility ([1]; 10% N-methyl-2-pyrrolidone in deionized water, aqueous with cosolvent or surfactant or cyclodextrin, kinetic from dmso stock, 10% N-methyl-2-pyrrolidone, compound dissolved in solvent first, then deionized water added): 30 µg/mL (≈ 0.064 mM)
solubility ([1]; Capmul PG8, oil or lipid): 12000 to 15000 µg/mL (≈ 25.6 to 32 mM)
solubility ([1]; DMA, organic solvent or mixture): 208000 to 416000 µg/mL (≈ 444 to 887 mM)
solubility ([1]; Ethanol, organic solvent or mixture): 1400 µg/mL (≈ 2.99 mM)
solubility ([1]; Ethyl Oleate, oil or lipid): < 2000 µg/mL
solubility ([1]; Ethyl acetate, organic solvent or mixture): 3 µg/mL (≈ 0.0064 mM)
solubility ([1]; Glycofurol, organic solvent or mixture): > 2000 µg/mL
solubility ([1]; Labrafac Hydro WL 219, oil or lipid): > 2000 µg/mL
solubility ([1]; Labrafac Lipophile WL 1349, oil or lipid): < 2000 µg/mL
solubility ([1]; Labrafil M1944CS, oil or lipid): < 2000 µg/mL
solubility ([1]; Labrafil M2125CS, oil or lipid): < 2000 µg/mL
solubility ([1]; Labrasol, oil or lipid): 4000 to 5000 µg/mL (≈ 8.53 to 10.7 mM)
solubility ([1]; NMP, organic solvent or mixture): > 563000 µg/mL
solubility ([1]; Olive oil, oil or lipid): < 2000 µg/mL
solubility ([1]; PEG 300, organic solvent or mixture): > 2000 µg/mL
solubility ([1]; Phosphal 50 PG, oil or lipid): > 2000 µg/mL
solubility ([1]; Phosphal 53 MCT, oil or lipid): > 2000 µg/mL
solubility ([1]; Propylene Glycol, organic solvent or mixture): < 2000 µg/mL
solubility ([1]; Safflower oil, oil or lipid): < 2000 µg/mL
solubility ([1]; Soybean oil, oil or lipid): < 2000 µg/mL
solubility ([1]; organic solvent or mixture, DMSO, measured visually at about 50 mg/mL, all compound dissolved): ≥ 51000 µg/mL
solubility ([1]; organic solvent or mixture, N-methyl-2-pyrrolidone, measured visually at about 50 mg/mL, all compound dissolved): ≥ 52000 µg/mL
SMILES: Cc1onc2c1c(=O)n([C@H]1CCC[C@@H](CNC(=O)c3ccc(F)nc3)C1)c1cccc(Cl)c21 [LSN 487355]

solubility ([2]; oil or lipid, excipient labrasol (FIG. 13)): ≥ 20000 µg/mL
solubility ([2]; organic solvent or mixture, excipient PEG-600 (FIG. 13)): ≥ 20000 µg/mL
Moisture sorption isotherm (Dynamic vapor sorption; dynamic vapor sorption): significant moisture sorption isotherm
Relative humidity at which deliquescence begins (Dynamic vapor sorption; dynamic vapor sorption): 80-90 % RH
Crystallinity in dynamic vapor sorption (Dynamic vapor sorption; equilibrated under flowing nitrogen (0% RH)): loss of crystallinity
SMILES: Cc1onc2c1c(=O)n([C@H]1CCC[C@@H](CNC(=O)c3ccc(F)nc3)C1)c1cccc(Cl)c21 [LSN 487355 phosphate salt]
